Assay results published in patent EP4775209A1 (Ascentawits Pharmaceuticals, Ltd., priority 2023, dated 2025).
Where two headings read alike, the source gives them in different places.

Key:
[1] = Phase I solid tumor clinical trial of AST-3424 in China (CTR20191399): safety and tolerability; type: in vivo, human; conditions: Day 1 and Day 8 of every 21-day treatment cycle; Chinese subjects
Method: The treatment cycle was 21 days, with administration on Day 1 and Day 8. Dose escalation was conducted across five dose levels: 1.0, 2.0, 4.0, 6.0, and 8.0 mg/m^2. After discussion by the Safety Review Committee (SRC), the MTD and RP2D when administered on Day 1 and Day 8 of every 21-day treatment cycle were confirmed as 6.0 mg/m^2 (a total dose of 12 mg/m^2 per cycle). The safety and tolerability were slightly better in the U.S. subjects than in the Chinese subjects (with a marginally higher MTD/RP2D under the same dosing regimen than those in the Chinese population). The safety profile trends were consistent (most adverse events were mild in severity; the most common adverse events included anemia, decreased platelet count, fatigue, and vomiting). Other safety, PK and efficacy results were generally similar to those in the clinical trials of OBI-3424.

[2] = GLP repeated-administration toxicity study (D1+D8/21 Days) in monkeys; type: in vivo, cynomolgus monkeys
Method: In a GLP repeated-administration toxicity study in cynomolgus monkeys, AS-3424 was intravenously infused to cynomolgus monkeys at doses of 0, 0.1, 0.3, and 0.6 mg/kg over 30 minutes on Days 1, 8, 22, and 29. […] Ultimately, the highest non-severe toxic dose (HNSTD) in monkeys was determined to be 0.6 mg/kg.

[3] = system: HuPrime® pancreatic cancer PA1170 subcutaneous xenograft model; assay: Pancreatic cancer PA1170 subcutaneous xenograft efficacy model; type: in vivo, BALB/c nude mice; conditions: for TGI (%): Day 30, P<0.05; for mean tumor volume: Day 30 after first administration
[4] = system: HuPrime® pancreatic cancer PA2637 subcutaneous xenograft model
Excerpt: (§1) For the experimental procedures and relevant evaluation indicators of the aforementioned solid tumor animal efficacy models, please refer to Examples 7, 8, and 9 in Patent Application 1, namely PCT/US2016/062114, with Publication No. WO2017/087428 (corresponding to Chinese Application CN201680044608.1, with Publication No. CN108290911B), Examples 3 and 4 in Patent Application 2, namely PCT/CN2021/078115, with Publication No. WO2022178821, and Research Literature 1. The aforementioned non-clinical animal efficacy models (PDX) mentioned in the present application are all similar to those in the aforementioned literatures, and the specific operation procedures thereof are not described herein again.
PA2637 is a HuPrime® xenograft model established from a pancreatic cancer tumor of a patient.
(§2) Efficacy was evaluated based on the relative tumor growth inhibition rate (TGI, %), and safety was evaluated based on animal body weight changes and mortality.

[5] = Phase I clinical trial of AST-3424 in China: blood pharmacokinetics compared with US data; type: in vivo, human; conditions: human, Chinese and American patients, printed as 'almost lower than', read-out: concentrations after 8 hours
[6] = cited from earlier work
[7] = GLP repeated-administration toxicity study (QD×5/21 Days) in monkeys; type: in vivo, cynomolgus monkeys; conditions: 5 cycles
Method: In a GLP repeated-administration toxicity study in cynomolgus monkeys, AS-3424 was intravenously infused to cynomolgus monkeys at doses of 0, 0.1, 0.2, or 0.4/0.3 mg/kg over 30 minutes on Days 1-5, Days 22-26, Days 43-47, Days 64-68, and Days 85-89.
During the trials, a decrease in #EOS (absolute eosinophil count), %EOS (% eosinophils), #RET (absolute reticulocyte count), and %RETIC (% reticulocytes) was primarily observed in the ≥0.1 mg/kg dose groups; a decrease in #NEUT, #LYMPH (lymphocyte absolute count), and %LYMPH (% lymphocyte) was also seen in the ≥ 0.2 mg/kg dose groups; and a decrease in WBC (white blood cell), HGB (hemoglobin), and HCT (hematocrit) was also seen in the 0.4/0.3 mg/kg dose group. Among them, the reduction in eosinophils was correlated with the reduction in the percentage of eosinophils in the bone marrow smears at the end of the administration period, and the decrease in lymphocytes was correlated with the reduction of lymphocytes in the thymic cortex under microscopic examination, which were considered to be secondary stress responses. All the above hematological changes were recoverable during the recovery period.

[8] = system: HuPrime® lung cancer LU5161 subcutaneous xenograft model
Excerpt: as §1
LU5161 is a HuPrime® xenograft model established from a lung tumor (small cell lung cancer) of a patient.
as §2

[9] = system: HuPrime® pancreatic cancer PA9451 subcutaneous xenograft model; assay: Pancreatic cancer PA9451 subcutaneous xenograft efficacy model; type: in vivo, BALB/c nude mice; conditions: for TGI (%): Day 36, P<0.001; for mean tumor volume: Day 36 after first administration
[10] = system: HuPrime® pancreatic cancer PA1280 subcutaneous xenograft model; assay: Pancreatic cancer PA1280 subcutaneous xenograft efficacy model; type: in vivo, BALB/c nude mice
Method: The drug was administered via tail vein injection once weekly for a total of three weeks, followed by one week of observation.

[11] = 1 mg/kg QD×5, 16 days off, QD×5
[12] = 2 mg/kg once weekly for 2 weeks
[13] = 1 mg/kg QD×5, 2 cycles, 6 mice per group
[14] = Regimen A, 12 mg/m^2 dose level

## C[C@H](OP(=O)(N1CC1)N1CC1)c1ccc([N+](=O)[O-])c(Oc2cccc(C(=O)N(C)C)c2)c1 [AST-3424]
[1]
  MTD: 6.0 mg/m^2
  RP2D: 6.0 mg/m^2
[2]; 0.1, 0.3, 0.6 mg/kg on Days 1, 8, 22, 29, intestinal necrosis/hyperplasia in pathology
  most prominent toxic reaction: diarrhea and vomiting
[2]; 30-minute i.v. infusion on Days 1, 8, 22, 29
  highest non-severe toxic dose (HNSTD): 0.6 mg/kg
[3]; [11]
  TGI (%): 97.60%
[3]; 1 mg/kg QD×5, 16 days off, QD×5, vehicle 1182.66
  mean tumor volume: 29.50 mm^3
[3]; [12]
  TGI (%): 94.83%
  mean tumor volume: 64.50 mm^3
[3]; AST-3424 groups 1 mg/kg QD×5 and 2 mg/kg QW, no animal deaths, no apparent drug toxicity
  tolerability (body weight changes and mortality): well tolerated
[4]; [13]
  tumor clearance: the tumor in one mouse was cleared
[4]; 1 mg/kg QD×5, 2 cycles, no animal deaths, no apparent drug toxicity
  tolerability (body weight changes and mortality): well tolerated
[4]; Day 36 after first administration, AST-3424 1 mg/kg QD×5, 16 days off, QD×5 (P < 0.001), ifosfamide 60 mg/kg QD×5/week for 2 weeks (no statistical difference)
  TGI (%): 80.78%
[4]; Day 36 after first administration, AST-3424 1 mg/kg QD×5, 16 days off, QD×5, ifosfamide 60 mg/kg QD×5/week for 2 weeks, vehicle 977.46
  mean tumor volume: 186.08 mm^3
[5]
  concentration at 8 h: < 1 ng/mL
[6]; 12 mg/m^2 on Day 1 and Day 8 of 21-day cycle (all 6 patients)
  probability of grade ≥3 TEAEs: 100%
[6]; 12 mg/m^2 only on Day 1 of 21-day cycle (2 out of 6 patients)
  probability of grade ≥3 TEAEs: 33.3%
[6]; 21 days per cycle, administration on Day 1 (once every 3 weeks)
  recommended Phase II dose (RP2D): 12 mg/m^2
[6]; [14]
  dose-limiting toxicity: anemia Grade 3-4: 5 out of 6
  dose-limiting toxicity: thrombocytopenia Grade 3-4: 5 out of 6
[6]; Regimen A: i.v., 21 days per cycle, administration on Day 1 and Day 8
  maximum tolerated dose (MTD): 8 mg/m^2
[6]; Regimen A
  nadir of the platelet count: Day 15 or Day 22
[6]; Regimen B, 14 mg/m^2, among 6 patients treated
  patients with Grade 3 or higher anemia: 3 patients
[6]; Regimen B: i.v., 21 days per cycle, administration only on Day 1, highest tested dose 14 mg/m^2
  MTD: not reached
[6]; all 39 patients (32/39)
  patients who experienced treatment-emergent adverse events (TRAEs): 82%
[6]; all 39 patients
  Grade ≥3 TRAEs: 49%
  TRAE anemia: 64%
  TRAE fatigue: 21%
  TRAE nausea: 26%
  TRAE thrombocytopenia: 51%
  patients who experienced serious TRAEs: 3 patients
[7]; 0.1, 0.2, 0.4/0.3 mg/kg QD×5 per 21 days
  toxic target organs: duodenum, jejunum, colon, and cecum
[7]; 30-minute i.v. infusion QD×5 per 21 days
  HNSTD: 0.3 mg/kg
[8]; [13]
  tumor clearance: the tumor in one mouse was cleared
[8]; 1 mg/kg QD×5, 2 cycles, no animal deaths
  tolerability (body weight changes and mortality): well tolerated
[8]; day 29 after first administration, AST-3424 1 mg/kg QD×5, 16 days off, QD×5 (P < 0.001), ifosfamide 60 mg/kg QD×5/week for 2 weeks (p > 0.05)
  TGI (%): 95.62%
[8]; day 29 after first administration, AST-3424 1 mg/kg QD×5, 16 days off, QD×5, ifosfamide 60 mg/kg QD×5/week for 2 weeks, negative control 2238.97
  mean tumor volume: 94.42 mm^3
[9]; 0.5 mg/kg QD×5, 16 days off, QD×5
  TGI (%): 91.77%
[9]; 0.5 mg/kg QD×5, 16 days off, QD×5, vehicle 661.61
  mean tumor volume: 54.83 mm^3
[9]; [11]
  TGI (%): 92.99%
  mean tumor volume: 46.05 mm^3
[9]; [12]
  TGI (%): 88.53%
  mean tumor volume: 76.78 mm^3
[9]; AST-3424 groups 0.5, 1 mg/kg QD×5 and 2 mg/kg QW, no animal deaths, no apparent drug toxicity
  tolerability (body weight changes and mortality): well tolerated
[10]; 2.5 mg/kg once weekly for three weeks, no animal deaths, no apparent drug toxicity
  tolerability (body weight changes and mortality): well tolerated
[10]; 2.5 mg/kg tail vein once weekly for three weeks, Day 27, vehicle 475.07
  mean tumor volume: 190.34 mm^3
